Laboratory results taken from PubChem BioAssay AID248 (DTP/NCI, 2004).
“And” between values parts separate entries of the source, which are not always exact repeats. Equal entries are not always repeated. Toxic doses and inconclusive results are not listed. Rule as the data show it: active = T/C of 150% or more; inactive = T/C below 125%.

System: L1210 leukemia ip in BDF1 mice, survival T/C
Experiment: NCI In Vivo Anticancer Drug Screen. Data for tumor model L1210 Leukemia (intraperitoneal) in B6D2F1 (BDF1) mice
Conditions: endpoint: mean survival time, higher = longer survival
Procedure, shortened: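 Ratio derived from survival: compound-dosed mice over vehicle-dosed mice, all bearing a transplantable tumor.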

[1] = dose: 50.0 mg/kg/injection, schedule: Q04DX003 (ip), vehicle: Klucel (hydroxypropylcellulose) (HPC)
[2] = dose: 100.0 mg/kg/injection, schedule: Q04DX003 (ip), vehicle: Klucel (hydroxypropylcellulose) (HPC)
[3] = dose: 200.0 mg/kg/injection, schedule: Q04DX003 (ip), vehicle: Klucel (hydroxypropylcellulose) (HPC)
[4] = dose: 100.0 mg/kg/injection, schedule: Q04DX003 (ip), vehicle: saline with Tween-80
[5] = dose: 100.0 mg/kg/injection, schedule: Q01DX009 (ip), vehicle: saline with Tween-80
[6] = dose: 100.0 mg/kg/injection, schedule: Q01DX001 (ip), vehicle: saline with Tween-80
[7] = dose: 200.0 mg/kg/injection, schedule: Q01DX001 (ip), vehicle: saline with Tween-80
[8] = dose: 25.0 mg/kg/injection, schedule: Q04DX003 (ip), vehicle: Klucel (hydroxypropylcellulose) (HPC)
[9] = dose: 100.0 mg/kg/injection, schedule: Q01DX001 (ip), vehicle: saline
[10] = dose: 400.0 mg/kg/injection, schedule: Q04DX003 (ip), vehicle: Klucel (hydroxypropylcellulose) (HPC)

Measured: T/C

Nc1cc(F)c2c(c1)C(=O)c1cc(F)ccc1-2
inactive: dose: 50.0 mg/kg/injection, schedule: Q01DX001 (ip), vehicle: carboxymethylcellulose (CMC) 93 % of control | [1] 96 % of control | dose: 100.0 mg/kg/injection, schedule: Q01DX001 (ip), vehicle: carboxymethylcellulose (CMC) 95 % of control | [2] 96 % of control | dose: 200.0 mg/kg/injection, schedule: Q01DX001 (ip), vehicle: carboxymethylcellulose (CMC) 95 % of control | [3] 98 % of control | dose: 400.0 mg/kg/injection, schedule: Q01DX001 (ip), vehicle: carboxymethylcellulose (CMC) 95 % of control

C[C@]12CC[C@@H](O)C[C@H]1CC[C@@H]1[C@@H]2CC[C@]2(C)C(=O)CC[C@@H]12
inactive: dose: 100.0 mg/kg/injection, schedule: Q01DX001 (sc), vehicle: steriod suspending solution 101 % of control | dose: 100.0 mg/kg/injection, schedule: Q04DX002 (ip), vehicle: saline with Tween-80 100 % of control | dose: 200.0 mg/kg/injection, schedule: Q01DX001 (sc), vehicle: steriod suspending solution 95 % of control | dose: 200.0 mg/kg/injection, schedule: Q04DX002 (ip), vehicle: saline with Tween-80 96 % of control | dose: 400.0 mg/kg/injection, schedule: Q01DX001 (sc), vehicle: steriod suspending solution 95 % of control | dose: 400.0 mg/kg/injection, schedule: Q04DX002 (ip), vehicle: saline with Tween-80 100 % of control

CCOC(=O)c1c(N)sc2c1CCCC2
inactive: dose: 100.0 mg/kg/injection, schedule: Q01DX009 (ip), vehicle: saline sonified 102 % of control | [4] 95 % of control | dose: 200.0 mg/kg/injection, schedule: Q01DX009 (ip), vehicle: saline sonified 89 % of control | dose: 200.0 mg/kg/injection, schedule: Q04DX003 (ip), vehicle: saline with Tween-80 103 % of control | dose: 400.0 mg/kg/injection, schedule: Q01DX009 (ip), vehicle: saline sonified 105 % of control | dose: 400.0 mg/kg/injection, schedule: Q04DX003 (ip), vehicle: saline with Tween-80 97 % of control

CC(CN1CCN(C)CC1)CN1c2ccccc2Sc2ccc(C(F)(F)F)cc21 (centres undefined)
inactive: dose: 3.12 mg/kg/injection, schedule: Q01DX009 (ip), vehicle: saline 101 % of control | dose: 6.25 mg/kg/injection, schedule: Q01DX009 (ip), vehicle: saline 106 % of control | dose: 12.5 mg/kg/injection, schedule: Q01DX009 (ip), vehicle: saline 113 % of control | dose: 25.0 mg/kg/injection, schedule: Q01DX009 (ip), vehicle: saline with Tween-80 111 % of control | dose: 25.0 mg/kg/injection, schedule: Q01DX009 (ip), vehicle: saline 117 % of control | dose: 25.0 mg/kg/injection, schedule: Q04DX003 (ip), vehicle: saline 101 % of control | dose: 50.0 mg/kg/injection, schedule: Q01DX009 (ip), vehicle: saline with Tween-80 111 % of control | dose: 50.0 mg/kg/injection, schedule: Q01DX009 (ip), vehicle: saline 98 % of control | dose: 50.0 mg/kg/injection, schedule: Q04DX003 (ip), vehicle: saline 113 % of control | [5] 96 % of control | [4] 107 % of control

CCOC(=O)C(C#N)C(C)CC(C)C (centres undefined)
inactive: dose: 50.0 mg/kg/injection, schedule: Q01DX001 (ip), vehicle: saline with Tween-80 102 % of control | [6] 102 % of control | [7] 93 % of control

CCNC(=S)Nc1cccc(C)c1
inactive: dose: 25.0 mg/kg/injection, schedule: Q04DX002 (ip), vehicle: gum acacia 102 % of control | dose: 50.0 mg/kg/injection, schedule: Q04DX002 (ip), vehicle: gum acacia 97 % of control | dose: 100.0 mg/kg/injection, schedule: Q04DX002 (ip), vehicle: gum acacia 97 % of control | dose: 200.0 mg/kg/injection, schedule: Q04DX002 (ip), vehicle: gum acacia 89 % of control

O=c1c(Br)cc(Cl)nc2c(Br)cc(Br)cc12
inactive: dose: 12.0 mg/kg/injection, schedule: Q01DX009 (ip), vehicle: Klucel (hydroxypropylcellulose) (HPC) 103 % of control | dose: 25.0 mg/kg/injection, schedule: Q01DX009 (ip), vehicle: Klucel (hydroxypropylcellulose) (HPC) 103 % of control | [8] 102 % of control | dose: 50.0 mg/kg/injection, schedule: Q01DX009 (ip), vehicle: Klucel (hydroxypropylcellulose) (HPC) 96 % of control and 89 % of control | [1] 98 % of control | [2] 93 % of control and 91 % of control

CN(C)[C@@H]1C(=O)C(C(N)=O)=C(O)[C@@]2(O)C(=O)C3=C(O)c4c(O)cccc4C[C@H]3C[C@@H]12
inactive: dose: 12.5 mg/kg/injection, schedule: Q01DX001 (ip), vehicle: other 94 % of control | dose: 12.5 mg/kg/injection, schedule: Q04DX003 (ip), vehicle: Klucel (hydroxypropylcellulose) (HPC) 98 % of control | dose: 18.75 mg/kg/injection, schedule: Q01DX009 (ip), vehicle: other 111 % of control | dose: 25.0 mg/kg/injection, schedule: Q01DX001 (ip), vehicle: other 96 % of control | [8] 104 % of control | dose: 37.5 mg/kg/injection, schedule: Q01DX009 (ip), vehicle: other 117 % of control | dose: 50.0 mg/kg/injection, schedule: Q01DX001 (ip), vehicle: other 100 % of control | [1] 107 % of control | dose: 75.0 mg/kg/injection, schedule: Q04DX003 (ip), vehicle: other 107 % of control | [9] 112 % of control

CCOC(=O)c1cnc(SC)nc1N/N=C/c1ccccc1
inactive: [2] 100 % of control | [3] 101 % of control | [10] 103 % of control

CC1CN(Cc2ccccc2)CC(C)N1C(=O)c1ccccc1 (centres undefined)
inactive: dose: 100.0 mg/kg/injection, schedule: Q01DX009 (ip), vehicle: water 95 % of control | dose: 100.0 mg/kg/injection, schedule: Q04DX003 (ip), vehicle: water 109 % of control | dose: 200.0 mg/kg/injection, schedule: Q01DX009 (ip), vehicle: water 93 % of control | dose: 200.0 mg/kg/injection, schedule: Q04DX003 (ip), vehicle: water 113 % of control | dose: 400.0 mg/kg/injection, schedule: Q01DX009 (ip), vehicle: water 104 % of control | dose: 400.0 mg/kg/injection, schedule: Q04DX003 (ip), vehicle: water 110 % of control

COc1ccccc1CC=O
inactive: [9] 102 % of control | dose: 200.0 mg/kg/injection, schedule: Q01DX001 (ip), vehicle: saline 103 % of control | dose: 400.0 mg/kg/injection, schedule: Q01DX001 (ip), vehicle: saline 97 % of control

COc1cc(C)ccc1C(=O)c1ccc(C)cc1OC
inactive: [6] 100 % of control | [5] 98 % of control | [2] 86 % of control | [7] 100 % of control | dose: 200.0 mg/kg/injection, schedule: Q01DX009 (ip), vehicle: saline with Tween-80 92 % of control | [3] 93 % of control | dose: 400.0 mg/kg/injection, schedule: Q01DX001 (ip), vehicle: saline with Tween-80 92 % of control | dose: 400.0 mg/kg/injection, schedule: Q01DX009 (ip), vehicle: saline with Tween-80 103 % of control | [10] 93 % of control

CCCCC1C(=O)N(c2ccccc2)N(c2ccccc2)C1=O
inactive: dose: 17.0 mg/kg/injection, schedule: Q01DX Z (ip), vehicle: water 97 % of control | dose: 40.0 mg/kg/injection, schedule: Q01DX Z (ip), vehicle: water 100 % of control | dose: 60.0 mg/kg/injection, schedule: Q01DX Z (ip), vehicle: water 103 % of control | dose: 90.0 mg/kg/injection, schedule: Q01DX Z (ip), vehicle: water 100 % of control | dose: 135.0 mg/kg/injection, schedule: Q01DX Z (ip), vehicle: water 114 % of control
